From patent US7935335B2, “Strains belonging to the genus Paenibacillus and method of controlling plant disease by using these strains or culture thereof” (Kaken Pharmaceutical Co., Ltd., priority 2004, dated 2011)
Where a SMILES comes first, the peptide text is derived from it. Bridges are numbered along the chain shown (N, C = ends). The star is where a group is joined. ξ: configuration not given here. Pentadecanoyl(3ξ-OH,15-Gua) = N=C(N)NCCCCCCCCCCCCC(O)CC(=O)*

How the values were obtained:
[1] = test system: cucumber bacterial blight bacterium; details: patent document 3; cited from earlier work
parsley cultured cells [2] = test: Activity of inducing disease resistance: elicitor responsiveness of parsley cultured cells, phytoalexin detection by fluorescence; assay type: cell-based; details: Evaluation Example 1; tested as 3:2 mixture
parsley cultured cells [3] = test: as above; assay type: cell-based; details: for Elicitor responsiveness of parsley cultured cells (in words): each compound alone; for Relative fluorescence: 0.5 μM
Procedure: The activity of inducing disease resistance in plant of compound 1 and compound 2 according to the present invention was also evaluated according to the method of Siegrist, J. et al. The results are shown in Table 9.
(§1) The activity of inducing disease resistance in plant of each of compound 1 and compound 2 was evaluated in the same manner as in Evaluation Example 1 by adopting the method practiced in Evaluation Example 1, i.e., the method in which the elicitor responsiveness of parsley cultured cells was measured by the detection of phytoalexin using fluorescence.
as §1, with “inducing” for “inducing disease”, “resistance to” for “resistance in”, “plant diseases” for “plant”, “compound 3” for “compound 1”, “compound 4” for “compound 2”

Gram-negative bacteria = details: patent document 3, non-patent documents 4 and 5; cited from earlier work
[4] = test system: cucumber bacterial blight bacterium (Pseudomonas syringae pv. lachrymans); test: Evaluation Example 2: paper disc test for direct antimicrobial activity against cucumber bacterial blight bacterium; assay type: cell-based; details: tested as 3:2 mixture, 60 + 40 ppm
Procedure: That is, cucumber bacterial blight bacterium was mixed with a potato semisynthetic medium (a decoction consisting of 300 g of potato and 1 L of distilled water, calcium nitrate tetrahydrate 0.5 g, disodium hydrogenphosphate dodecahydrate 2 g, peptone 5 g, sucrose 20 g, powdered agar 15 g) maintained at 45° C., in a proportion of 1×10^8 CFU/mL, and the resulting mixture was dispensed in 20 mL aliquots into sterilized Petri dishes. After the solidification of the medium, 50 μL of a solution obtained by dissolving a 3:2 mixture of compounds 1 and 2 in dimethyl sulfoxide to a concentration of 100 μg/mL was infiltrated into a paper disc with a diameter of 8 mm, and then the paper disc was allowed to stand on the medium. After 48 hours of cultivation at 25° C. in the dark, the activity was evaluated on the basis of the presence of an inhibition zone around the periphery

[5] = test system: Fusarium wilt of cucumber fungus; details: patent document 3; cited from earlier work
Solubility in solvents = assay type: physicochemical
[6] = Evaluation Example 6, elicitor treatment No
[7] = Evaluation Example 6, elicitor treatment Yes
[8] = in ethyl acetate, chloroform and hexane
[9] = in methanol, butanol, isopropyl alcohol and dimethyl sulfoxide
[10] = Evaluation Example 7, elicitor No
[11] = Evaluation Example 7, elicitor Yes

SMILES	Antimicrobial activity against cucumber bacterial blight bacterium [1]	Elicitor responsiveness of parsley cultured cells (in words) (parsley cultured cells [2])	Elicitor responsiveness of parsley cultured cells (in words) (parsley cultured cells [3]; Evaluation Example 6)	Relative fluorescence (parsley cultured cells [3]; [6])	Relative fluorescence (parsley cultured cells [3]; [7])	Antimicrobial activity against Gram-negative bacteria (Gram-negative bacteria)	Direct antimicrobial activity against cucumber bacterial blight bacterium (in words) [4]	Antimicrobial activity against Fusarium wilt of cucumber fungus [5]	Solubility (Solubility in solvents; [8])	Solubility (Solubility in solvents; [9])	Elicitor responsiveness of parsley cultured cells (in words) (parsley cultured cells [3]; Evaluation Example 7)	Relative fluorescence (parsley cultured cells [3]; [10])	Relative fluorescence (parsley cultured cells [3]; [11])
CC1NC(=O)C(CC(N)=O)NC(=O)C(C(C)O)NC(=O)C(C(C)C)NC(=O)C(C(C)C)NC(=O)C(NC(=O)CC(O)CCCCCCCCCCCCNC(=N)N)C(C)OC1=O (stereo not drawn) [Compound 1, Fusaricidin A] ({Pentadecanoyl(3ξ-OH,15-Gua)}-TVVTNA; ester 1-C; configuration not given here)	inactive	improve the elicitor responsiveness	improves the elicitor responsiveness	98.5	1000	inactive	do not exhibit direct antimicrobial activity	no antimicrobial activity					
CC1NC(=O)C(CCC(N)=O)NC(=O)C(C(C)O)NC(=O)C(C(C)C)NC(=O)C(C(C)C)NC(=O)C(NC(=O)CC(O)CCCCCCCCCCCCNC(=N)N)C(C)OC1=O (stereo not drawn) [Compound 2, Fusaricidin B] ({Pentadecanoyl(3ξ-OH,15-Gua)}-TVVTQA; ester 1-C; configuration not given here)		improve the elicitor responsiveness	improves the elicitor responsiveness	100.7	1000	inactive	do not exhibit direct antimicrobial activity						
CC(N)C(=O)OC(C)C1NC(=O)C(C(C)C)NC(=O)C(C(C)C)NC(=O)C(NC(=O)CC(O)CCCCCCCCCCCCNC(=N)N)C(C)OC(=O)C(C)NC(=O)C(CC(N)=O)NC1=O (stereo not drawn) [Compound 3] ({Pentadecanoyl(3ξ-OH,15-Gua)}-TVVT(Ala)NA; ester 1-C; configuration not given here)									insoluble	readily soluble	improve the elicitor responsiveness	3.1	222.7
CC(N)C(=O)OC(C)C1NC(=O)C(C(C)C)NC(=O)C(C(C)C)NC(=O)C(NC(=O)CC(O)CCCCCCCCCCCCNC(=N)N)C(C)OC(=O)C(C)NC(=O)C(CCC(N)=O)NC1=O (stereo not drawn) [Compound 4] ({Pentadecanoyl(3ξ-OH,15-Gua)}-TVVT(Ala)QA; ester 1-C; configuration not given here)									insoluble	readily soluble	improve the elicitor responsiveness	0.7	504.8
